Activity calls are given as the source filed them. No cut-off for these calls is given here.
Assays:
[1] = species: Homo sapiens; assay: Cleavage of DNA at 360 uM
[2] = species: Homo sapiens; assay: Cleavage of DNA at 180 uM in presence of cysteine
[3] = species: Homo sapiens; assay: Cleavage of DNA at 180 uM in anaerobic condition
[4] = species: Homo sapiens; assay: Cleavage of DNA at 180 uM

Question: C[S+]([O-])c1ccccc1 (centres undefined) was tested. Which Activity [1] did it give?
Answer: Active

Question: How did the Activity [2] turn out when [O-][S+](c1ccccc1)c1ccccc1 was run?
Answer: inactive

Question: And the Activity [3]?
Answer: inactive

Question: And the Activity [4]?
Answer: Active

Reference: ChEMBL document CHEMBL1140537, “DNA cleavage by photolysis of aryl sulfoxides” (Bioorg Med Chem Lett, 2007)
